Read-outs that look alike come from different tables or passages of the source.
Legend:
[1] = Estimation of water solubility; assay type: physicochemical; settings: visual inspection, 10 mg sample
Experimental: Estimation of Water Solubility: Ten mg portions of the salt forms to be studied were weighed into a standard 1.5 mL HPLC vial (32×11.6 mm). […] An estimation of solubility was based on the volume of water necessary to dissolve the known weight of sample.

[2] = assay type: physicochemical; design: DSC: unit not given beside the values; settings: 40° C. and 75% RH
Experimental: Identity, Assay, and Purity by HPLC
Testing was performed on a calibrated and validated Agilent 1200 Rapid Resolution High Performance Liquid Chromatography (HPLC) system designated LC-0430-AD or LC-418-1D. The system comprises a binary SL pump, degasser, high performance autosampler SL with a fraction collector, thermostated column compartment with a 2 valve column switcher, and a DAD SL detector. All standard solutions and samples were prepared in Class A glass volumetric flasks and were placed in autosampler vials. Standard weighings were done using a calibrated Mettler analytical balance. The sample preparations were centrifuged using an Eppendorf microcentrifuge. The primary chromatography data was acquired and integrated using Empower 2 software. Microsoft Office Excel 2003 was used for the calculation of results.
Solid State Stability of Salts at 40° C. and 75% Humidity:
Samples of the form to be studied (15-20 mg) were weighed into standard 1.5 mL HPLC vials (32×11.6 mm) and stored uncapped for 0, 7, 14 and 28 days in a 40° C. and 75% RH stability chamber. Samples were removed on the indicated day and capped. Measurements of XRPD, DSC, TGA and HPLC Identity by Purity and Assay measurements were completed on each time point sample.

## COc1cccc2[nH]c3c4c(c5c(c3c12)C(=O)N(CN1CCN(C)CC1)C5=O)CCC4 [Sample 13-4]
[1]
  Estimated Water Solubility: <10 mg/mL

## COc1cccc2[nH]c3c4c(c5c(c3c12)C(=O)N(CN1CCN(C)CC1)C5=O)CCC4 [Sample 31-5]
[1]
  Estimated Water Solubility: ~25 mg/mL

## COc1cccc2[nH]c3c4c(c5c(c3c12)C(=O)N(CN1CCN(C)CC1)C5=O)CCC4 [Sample 30-1]
[1]
  Estimated Water Solubility: ~20 mg/mL

## COc1cccc2[nH]c3c4c(c5c(c3c12)C(=O)N(CN1CCN(C)CC1)C5=O)CCC4 [39-1(2)]
[1]
  Estimated Water Solubility: ~25 mg/mL

## COc1cccc2[nH]c3c4c(c5c(c3c12)C(=O)N(CN1CCN(C)CC1)C5=O)CCC4 [Sample 13-7]
[1]
  Estimated Water Solubility: 50 to 100 mg/mL

## COc1cccc2[nH]c3c4c(c5c(c3c12)C(=O)N(CN1CCN(C)CC1)C5=O)CCC4.O=C1CC[C@@H](C(=O)O)N1
[2]; day 0
  COMPOUND A Assay: 65.5%
  COMPOUND B Assay: 0.6%
  DSC: 198.2
  HPLC Purity: 98.6%
  TGA: 0.49%
[2]; day 7
  COMPOUND A Assay: 71.4%
  COMPOUND B Assay: 0.6%
  DSC: 199.0
  HPLC Purity: 98.7%
  TGA: 0.54%
  XRPD: No change
[2]; day 14
  COMPOUND A Assay: 60.2%
  COMPOUND B Assay: 0.8%
  DSC: 198.3
  HPLC Purity: 98.2%
  TGA: 0.64%
  XRPD: No change
[2]; day 28
  COMPOUND A Assay: 64.0%
  COMPOUND B Assay: 1.2%
  DSC: 198.4
  HPLC Purity: 97.2%
  XRPD: No change

## COc1cccc2[nH]c3c4c(c5c(c3c12)C(=O)N(CN1CCN(C)CC1)C5=O)CCC4 [Sample 13-10]
[1]
  Estimated Water Solubility: 10 to 20 mg/mL

## COc1cccc2[nH]c3c4c(c5c(c3c12)C(=O)N(CN1CCN(C)CC1)C5=O)CCC4 [Sample 13-9]
[1]
  Estimated Water Solubility: <10 mg/mL

## COc1cccc2[nH]c3c4c(c5c(c3c12)C(=O)N(CN1CCN(C)CC1)C5=O)CCC4 [39-2(2)]
[1]
  Estimated Water Solubility: >100 mg/mL

## COc1cccc2[nH]c3c4c(c5c(c3c12)C(=O)N(CN1CCN(C)CC1)C5=O)CCC4 [Sample 39-1]
[1]
  Estimated Water Solubility: ~50 mg/mL

## COc1cccc2[nH]c3c4c(c5c(c3c12)C(=O)N(CN1CCN(C)CC1)C5=O)CCC4 [Sample 39-3]
[1]
  Estimated Water Solubility: >100 mg/mL

## COc1cccc2[nH]c3c4c(c5c(c3c12)C(=O)N(CN1CCN(C)CC1)C5=O)CCC4 [Sample 39-5]
[1]
  Estimated Water Solubility: >100 mg/mL

## COc1cccc2[nH]c3c4c(c5c(c3c12)C(=O)N(CN1CCN(C)CC1)C5=O)CCC4 [39-5(2)]
[1]
  Estimated Water Solubility: >100 mg/mL

## COc1cccc2[nH]c3c4c(c5c(c3c12)C(=O)N(CN1CCN(C)CC1)C5=O)CCC4 [Sample 13-6]
[1]
  Estimated Water Solubility: >100 mg/mL

## COc1cccc2[nH]c3c4c(c5c(c3c12)C(=O)N(CN1CCN(C)CC1)C5=O)CCC4 [Sample 31-1]
[1]
  Estimated Water Solubility: ~25 mg/mL

## COc1cccc2[nH]c3c4c(c5c(c3c12)C(=O)N(CN1CCN(C)CC1)C5=O)CCC4 [Sample 39-4]
[1]
  Estimated Water Solubility: >100 mg/mL

## COc1cccc2[nH]c3c4c(c5c(c3c12)C(=O)N(CN1CCN(C)CC1)C5=O)CCC4 [Sample 30-2]
[1]
  Estimated Water Solubility: >100 mg/mL

## COc1cccc2[nH]c3c4c(c5c(c3c12)C(=O)N(CN1CCN(C)CC1)C5=O)CCC4 [Sample 30-4]
[1]
  Estimated Water Solubility: >100 mg/mL

## COc1cccc2[nH]c3c4c(c5c(c3c12)C(=O)N(CN1CCN(C)CC1)C5=O)CCC4 [Sample 30-3]
[1]
  Estimated Water Solubility: >100 mg/mL

## COc1cccc2[nH]c3c4c(c5c(c3c12)C(=O)N(CN1CCN(C)CC1)C5=O)CCC4 [Sample 13-3]
[1]
  Estimated Water Solubility: 50 to 100 mg/mL

## COc1cccc2[nH]c3c4c(c5c(c3c12)C(=O)N(CN1CCN(C)CC1)C5=O)CCC4 [39-3(2)]
[1]
  Estimated Water Solubility: >100 mg/mL

## COc1cccc2[nH]c3c4c(c5c(c3c12)C(=O)N(CN1CCN(C)CC1)C5=O)CCC4 [Sample 13-5]
[1]
  Estimated Water Solubility: <10 mg/mL

## COc1cccc2[nH]c3c4c(c5c(c3c12)C(=O)N(CN1CCN(C)CC1)C5=O)CCC4 [Sample 31-3]
[1]
  Estimated Water Solubility: >100 mg/mL

Reference: US10150772B2, “Crystalline forms of PARP inhibitors” (priority 2014, dated 2018)
